Results on 1 compound are retold here after patent US20220233469A1, “METHODS, COMPOSITIONS AND DEVICES FOR TREATING NEUROINFLAMMATORY CONDITIONS” (ALYRA BIOTECH PTY LTD, priority 2019, published 2022).

Entries after “also recorded” stand apart in the source; their conditions may differ.

For test [1] the following is noted: used orally in clinical practice; cited from earlier work.
Test [2] in a line: Facial Grimace Score after intrauterine LPS in mice. In kind it is in vivo, mouse.
Another test deals with dorsal horn microglia. Kind of test: Activation of dorsal horn microglia (Iba1 immunofluorescence) after intrauterine LPS in mice. In kind it is in vivo, mouse. Particulars: intrauterine, given with LPS (100 ug/kg) once per estrus cycle over three cycles, Amitriptyline 28 ug/kg, TAK-242 36 ug/kg. An excerpt: (§1) We first recognised that neuroinflammatory conditions of the nervous system may be, at least in part, due to activation of the innate immune system within the uterus resulting in activation of glial cells in the dorsal horn of the spinal cord. To model this in mice, a study was undertaken administering LPS (lipopolysaccharide), a potent immune activator, to the uterus of mice once per estrus cycle over three cycles.
(§2) Studies were also undertaken to investigate whether a small dose of amitriptyline, an inhibitor of the pattern recognition receptors TLR, NOD, CLR, RIG-1 and MDA-5, administered with LPS within the uterus could prevent LPS-induced activation of spinal glial cells. To confirm that the amitriptyline was acting, at least in part, by blocking TLRs, an investigation was also conducted on mice given a small dose of pure TLR4 blocker-TAK-242—with LPS.
(§3) The Nonsurgical Embryo Transfer Device (Paratech, USA) was used to allow insertion of fluid into the uterus with brief, mild discomfort to the mouse, and no need for anaesthesia. Following three estrus cycles, glial activation in the dorsal horn of the spinal cord was measured using immunofluorescence. Activation of dorsal horn astrocytes was assessed using GFAP. Activation of dorsal horn microglia was assessed using Iba1. We compared the activation of spinal glia in mice with intrauterine administration of saline only, saline and LPS (100 ug/kg), saline LPS (100 ug/kg) and Amitriptyline (28 ug/kg), and saline LPS (100 ug/kg) and TAK-242 (36 ug/kg).
(§4) The spinal cord was assessed using immunohistochemistry techniques across levels T10, T11, T12, T13, L1, L2, L3, L4, L5, L6, S1 and S2 where T represents the thoracic segment of the spinal cord, L represents the lumbar segment of the spinal cord and S represents the sacral segment of the spinal cord. The regions of interest in the dorsal horn include Laminae I, II, III and IV. Changes in spinal glial reactivity are causally linked to all known models of neuroinflammatory medical conditions.

The subject of a further test is HEK293/Null2. Kind of test: TLR-/NLR- control cell line HEK293/Null2 stimulated with TNFa. Format: cell-based, human. The note with it: stimulated with TNFa at 10 ng/mL. As for the experimental part: (§5) Toll-Like Receptor (TLR), NOD-Like Receptor (NLR) and C-Type Lectin Receptor (CLR) stimulation were tested by assessing NF-κB activation in HEK293 cells expressing a given TLR, NLR or CLR. The activity of the test articles was tested at one concentration and compared to control ligands. These steps were performed in triplicate. In a 96-well plate (200 μL total volume) containing the appropriate cells (50,000-75,000 cells/well), 20 μL of the test article or the positive control ligand was added to the wells. For the antagonist assay, the test article was incubated with the cells, at 37° C. with 5% CO2, for 30 minutes prior to the addition of the positive control ligand to the wells. The media added to the wells was designed for the detection of NF-κB induced SEAP expression. After a 16-24 hr incubation the optical density (OD) was read at 650 nm on a Molecular Devices SpectraMax 340PC absorbance detector.

The subject of the next test is HEK293/Null. Kind of test: RIG-I-/MDA-5- control cell line HEK293/Null stimulated with hIFNα. In kind it is cell-based, human. The note with it: stimulated with recombinant hIFNα at 100 IU/mL. As for the experimental part: RIG-I and MDA-5 stimulation were tested by assessing IRF3 activation in HEK293 cells expressing human RIG-I or MDA-5 genes. The activity of the test articles was tested on human RIG-I and MDA-5 expressing cells as a potential agonist or antagonist. The test articles were evaluated at one concentration and compared to control ligands. This step was performed in triplicate. The results are provided as Relative Luminescence Units (RLUs).
RIG-I^−/MDA-5^− Cell Lines: HEK293/Null: Control for human RIG-I and MDA-5 Poly(I:C)HMW/LyoVec at 1 μg/mL. Antagonist: 500 ng/mL 5′ppp-dsRNA/LyoVec at 1 μg/mL. Antagonist: 500 ng/mL hIFNα at 1000 IU/mL. Antagonist: 100 IU/mL.
In a 96-well plate (200 μL total volume) containing the appropriate cells (25,000-50,000 cells/well), 20 μL of the test article or of the positive control ligand was added to the wells. For the antagonist assay, the test article was incubated with the cells, at 37° C. with 5% CO2, for 30 minutes prior to the addition of the positive control ligand to the wells. After 20 hour incubation, activation of the IRF pathway was monitored using a luciferase detection assay. Luciferase activity was assayed in triplicate from the supernatant of the induced cells, and the relative luminescence units (RLUs) are detected by a Promega GloMax Luminometer.

In a further test the test system is HEK293/Null1. The test can be described thus: TLR-/NLR- control cell line HEK293/Null1 stimulated with TNFa. In kind it is cell-based, human. The note with it: stimulated with TNFa at 10 ng/mL. As for the experimental part:
as §5

A further test has as its system spinal glial cells. The test can be described thus: Spinal glial activation after intrauterine LPS in mice. Format: in vivo, mouse. The note with it: intrauterine co-administration with LPS (100 ug/kg), Amitriptyline 28 ug/kg, TAK-242 36 ug/kg.
From the text: as §1, §2, §3, §4

Another test has as its system dorsal horn astrocytes. The test can be described thus: Activation of dorsal horn astrocytes (GFAP immunofluorescence) after intrauterine LPS in mice. In kind it is in vivo, mouse. The note with it: for LPS-induced activation of spinal astrocytes (GFAP staining, dorsal horn): intrauterine, given with LPS (100 ug/kg) once per estrus cycle over three cycles, Amitriptyline 28 ug/kg, TAK-242 36 ug/kg.
From the text: as §1, §2, §3, §4

With `CN(C)CCC=C1c2ccccc2CCc2ccccc21` [Amitriptyline], in test [1], the clinical use entry was “has been used successfully to treat PMS and depression”. Moreover, the “proportion of mice displaying severe grimace” value in test [2] (intrauterine LPS with amitriptyline vs LPS only, categorical assessment, p=0.043) is “significantly reduced severe grimace behaviour”. For the same compound, the “Facial Grimace Score” value in test [2] (mice, 24 hours following the final LPS stimulation, intrauterine LPS with Amitriptyline or TAK242) was “reduced these scores”. In addition, the “LPS-induced activation of spinal microglia (Iba1 staining, dorsal horn)” value in the test on dorsal horn microglia was “blocked the impact of intrauterine LPS at multiple levels of the spinal cord and reduced microglial reactivity to basal levels; also recorded: appears to reduce microglial reactivity to basal levels”; with dorsal horn microglia (listed as amitriptyline), “prevented LPS-induced activation of spinal astrocytes and microglia”. The “effect on control cell line HEK293/Null2” value in the test with HEK293/Null2 is “slight inhibitory effect”. Further, the “effect on control cell line HEK293/Null” value in the test with HEK293/Null is on record as “inhibitory effect”. In addition, in the test with HEK293/Null1, the “effect on control cell line HEK293/Null1” value is recorded as “slight inhibitory effect”. In addition, the entries for the “LPS-induced spinal glial activation” value in the test on spinal glial cells and in the test with spinal glial cells (listed as amitriptyline) were “showed additional activity reducing spinal glial activation above TAK-242 alone” and “effect was prevented”, respectively. Besides, the “LPS-induced activation of spinal astrocytes (GFAP staining, dorsal horn)” value in the test with dorsal horn astrocytes was “blocks the impact of intrauterine LPS at multiple levels of the spinal cord and appears to reduce astrocytic reactivity to below basal levels”; with dorsal horn astrocytes (listed as amitriptyline), “prevented LPS-induced activation of spinal astrocytes and microglia; also recorded: reduced spinal activation of astrocytes below baseline levels; also recorded: blocked the impact of intrauterine LPS at multiple levels of the spinal cord and reduced astrocytic reactivity to below basal levels”. The “integrated density of GFAP staining (activated astrocytes within the dorsal horn)” value in the test on dorsal horn astrocytes (level of T12, intrauterine LPS with Amitriptyline or TAK-242 vs LPS, p=0.0002) is “significantly reduce LPS effect”.
